The text below walks through data of patent publication US4742073A (priority 1982, dated 1988).

One series is described as follows: physchem. The format is physicochemical. The text has this: The assays would allow a formation of isopilocarpine or isopilocarpic acid of 1% to be detected.
The nature of series [1]: Apparent partition coefficient 1-octanol/phosphate buffer pH 7.4. It is filed as physicochemical. To be noted: for log P: pH 7.4.
The nature of series [2]: pKa, solubility and other physicochemical properties. To be noted: in words.
Another series relates to eyes of the rabbits. Kind of series: Ophthalmic pupillary diameter or miosis study. The format is in vivo, male albino rabbits. To be noted: for duration of miotic effect compared with pilocarpine / overall miotic effect compared with pilocarpine: 25 μl topical, pH 4.5, FIG. 3, in words; for duration of miotic activity of the di-esters: FIG. 5, 0.5% pilocarpine nitrate equivalent. On the procedure: Twenty-five microliter volumes of each solution were administered by topical ophthalmic instillation to male albino rabbits, and pupillary diameter changes or miotic activities in the eyes of the rabbits were recorded as a function of time, and were compared. A detailed description of the procedure for the miosis study is given in Mitra & Mikkelson (1982) and references cited therein. […] Thus, the miotic activity observed after administration of a solution of O-benzoyl pilocarpic acid 4-methylbenzyl ester lasted for 4.5 hours as shown in FIG. 4. The equivalent concentrations and pH were the same as in the above experiment.
The compounds are: 4-methylbenzyl pilocarpic acid ester, O-benzoyl pilocarpic acid 4-methylbenzyl ester, and O-acetyl pilocarpic acid 4-methylbenzyl ester. In each of these three derivatives the R1 -substituent is the 4-methylbenzyloxy group. […] Duration of the activity of the di-esters is seen to be approximately 4.5 hours.
In FIG. 6 the compounds are the O-benzoyl 4-chlorobenzyl, the O-phenylacetyl benzyl, and the O-3-chlorobenzoyl benzyl pilocarpic acid esters. In FIG. 7 the compounds are the O-benzoyl benzyl, the O-butyryl 4-methylbenzyl and the O-nicotionyl benzyl pilocarpic acid esters. […] Again, the extended duration is apparent. Thus, even though the dosage level is less than in the previous experiments, the miotic effect is apparent for up to 4.5 hours after administration.

Series [3] can be described thus: Degradation of O-acyl pilocarpic acid esters and formation of pilocarpine in 75% human plasma. The format is in vitro ADME. To be noted: for half-life: 75% plasma. The source says:
^b In 75% human plasma (pH 7.4) the 4methylbenzyl ester of pilocarpic
O--acyl esters as determined by HPLC.

Series [4] in a line: Shelf-life / stability of aqueous solutions. The format is physicochemical. On the procedure: At such pH values the stability is much increased as compared with that at neutral and basic pH values. […] At these pH values solutions of the compound were predicted to have shelf-lives in excess of 8 years at 25° C. and 20 years at 20° C. as determined on the basis of temperature-accelerated kinetic stability studies.

A short description of series [5]: Hydrolysis/stability of O-acyl pilocarpic acid esters in plasma-free buffer (specific base catalysis). It is filed as physicochemical. The note with it: for kOH (catalytic rate constant, specific base-catalyzed hydrolysis): 37° C., based on hydroxide ion activity; for half-life: buffer. On the procedure:
^c The hydrolysis is specific basecatalyzed and the data shown were
obtained by extrapolating experimental rate constants at pH 10-12 to pH
7.4. At 20° C. the t0.5 values were 4.5 and 1.4 years, […]

[6] abbreviates: octanol/phosphate buffer, pH 7.4, Partition coefficients (P).
[7] abbreviates: 0.5% pilocarpine nitrate equivalent.
[8] abbreviates: 75% human plasma (pH 7.4) at 37° C., in words.
The mark [9] stands for this setting: 75% human plasma (pH 7.4) at 37° C., read-out: half-lives of degradation in 75% human plasma.
The mark [10] stands for this setting: pH 7.4, 20° C., hydrolysis in buffer pH 7.4, extrapolated (Table 2 footnote c), read-out: t0.5 values at 20° C. (converted).
Setting [11] is: pH 7.4, 37° C., extrapolated from rate constants at pH 10-12 to pH 7.4, read-out: t0.5 of hydrolysis to pilocarpic acid 4-methylbenzyl ester, pH 7.4 buffer (converted).
The mark [12] stands for this setting: octanol/buffer, pH 7.4, di-esters (Table 3), read-out: log P octanol/buffer pH 7.4.
[13] abbreviates: octanol/phosphate buffer, pH 7.4, octanol / 0.05 M phosphate buffer pH 7.40, O-acyl derivatives of pilocarpic acid 4-methylbenzyl ester (Table 2), read-out: Partition coefficients (P) (converted).
Where [14] appears, read: human, pH 7.4, 37° C., di-esters (Table 3), read-out: t0.5 human plasma (75%).
[15] abbreviates: 25 μl of 0.25% (pilocarpine nitrate equivalent), FIGS. 6 and 7.

Structures are written as SMILES. Read-outs that look alike come from different tables or passages of the source. A value given as a limit tells only on which side of the number the result lay.

Turning to `CCCCOC(=O)[C@@H](CC)[C@H](CO)Cc1cncn1C` [Example 2, Pilocarpic Acid Butyl Ester], the half-life in “physchem” (buffer, pH 7.4) was 13.7 h. Also, the logD in series [1] (setting [6]) is 1.58.

In turn, `CC[C@H](C(=O)OCc1ccccc1)[C@H](CO)Cc1cncn1C` [Example 3, Pilocarpic Acid Benzyl Ester] showed a half-life in “physchem” (buffer, pH 7.4) of 0.833 h. The logD in series [1] (setting [6]) is 1.82. The hygroscopicity entry in series [2] is given as “hygroscopic”. Besides, in the series on eyes of the rabbits (setting [7]), the “duration of miotic effect compared with pilocarpine” value was “most significantly and dramatically longer”; the “overall miotic effect compared with pilocarpine” value is given as “significantly greater in their overall effect”.

Take `CC[C@H](C(=O)OCc1ccc(Cl)cc1)[C@H](CO)Cc1cncn1C` [Example 4, Pilocarpic Acid 4-Chlorobenzyl Ester]: in the series “physchem” (buffer, pH 7.4), the half-life turned out to be 0.5 h. The logD in series [1] (setting [6]) is 2.54. In addition, in the series on eyes of the rabbits (setting [7]), the “duration of miotic effect compared with pilocarpine” value is “most significantly and dramatically longer”; the “overall miotic effect compared with pilocarpine” value is recorded as “significantly greater in their overall effect”.

Regarding `CC[C@H](C(=O)OCc1ccc(C)cc1)[C@H](CO)Cc1cncn1C` [Example 5, Pilocarpic Acid 4-Methylbenzyl Ester], the half-life in “physchem” (buffer, pH 7.4) turned out to be 1.28 h; in “physchem” (plasma-free buffer), 1.28 h; in series [3] (75% human plasma (pH 7.4) at 37° C., after formation from the O-acyl esters) it was 1.38 h. Further, the “extent of cyclization to pilocarpine in plasma” value in series [3] (setting [8]) is “cyclized quantitatively to pilocarpine”. For the same molecule, the logD in series [1] (setting [6]) is 2.31. Further, the “shelf-life (time for 10% decomposition) at 4° C.” value in series [4] (aqueous solution pH 4.0, 4° C.) was found to be 3.8 years. In addition, the “shelf-life (time for 10% decomposition) at 20° C.” value in series [4] (aqueous solution pH 4.0, 20° C.) is on record as “about 1.5 years”. The “duration of miotic effect compared with pilocarpine” value in the series on eyes of the rabbits (setting [7]) is “most significantly and dramatically longer”. The “overall miotic effect compared with pilocarpine” value in the series on eyes of the rabbits (setting [7]) was “significantly greater in their overall effect”.

For the molecule `CC[C@H](C(=O)OCc1ccccc1C)[C@H](CO)Cc1cncn1C` [Example 6, Pilocarpic Acid 2-Methylbenzyl Ester], in series [1] (setting [6]), the logD was 2.27.

As to `CC[C@H](C(=O)OCCc1ccccc1)[C@H](CO)Cc1cncn1C` [Example 9, Pilocarpic Acid 2-Phenylethyl Ester], the log P – broadly, a log measure of how a compound divides between an organic and an aqueous phase – in series [1] (octanol/phosphate buffer) was determined as 2.16. The logD in series [1] (setting [6]) is 2.16.

For `CC[C@H](C(=O)OCc1ccc(C)cc1)[C@H](COC(=O)c1ccccc1)Cc1cncn1C` [Example 11, O-Benzoyl Pilocarpic Acid 4-Methylbenzyl Ester], the “yield of pilocarpic acid 4-methylbenzyl ester formed in plasma” value in series [3] (setting [8]) is on record as “quantitative amounts”. In addition, the “sum of the concentrations of O-benzoyl di-ester, intermediate ester and pilocarpine at any time” value in series [3] (75% human plasma, FIG. 2) is on record as 100±3%. The half-life in series [3] (setting [9]) was 0.267 h; in series [5] (setting [10]), 1640 days; in series [5] (setting [11]) it was 200 days. The “kOH (catalytic rate constant, specific base-catalyzed hydrolysis)” value (“kOH” for short) in series [5] was 0.0667 M⁻¹ s⁻¹. Also, the logD in series [1] (setting [12]) and in series [1] (setting [13]) was 4.7 in each case. Further, the “duration of miotic activity” value in the series on eyes of the rabbits (25 μl, 0.5% pilocarpine nitrate equivalent, FIG. 4) is 4.5 h. Moreover, the “bioavailability relative to pilocarpine” value in the series on eyes of the rabbits (FIG. 4, 0.5% pilocarpine nitrate equivalent) is “approximately 4 fold”. In addition, the “duration of miotic activity of the di-esters” value in the series with eyes of the rabbits was “approximately 4.5 hours”.

For the molecule `CC[C@H](C(=O)OCc1ccc(C)cc1)[C@H](COC(C)=O)Cc1cncn1C` [Example 12, O-Acetyl Pilocarpic Acid 4-Methylbenzyl Ester], the “yield of pilocarpic acid 4-methylbenzyl ester formed in plasma” value in series [3] (setting [8]) is listed as “quantitative amounts”. Further, the half-life is 0.4 h in series [3] (setting [9]), 511 days in series [5] (setting [10]) and 62.5 days in series [5] (setting [11]). Further, the “kOH” value in series [5] came out at 0.21 M⁻¹ s⁻¹. The logD was 3.16 in series [1] (setting [12]); 3.16 in series [1] (octanol/phosphate buffer, pH 7.4, octanol / 0.05 M phosphate buffer pH 7.40 (Table 2), read-out: log P); 3.16 in series [1] (setting [13]). The “duration of miotic activity of the di-esters” value in the series with eyes of the rabbits was “approximately 4.5 hours”.

For `CC[C@H](C(=O)OC(C)c1ccccc1)[C@H](CO)Cc1cncn1C` (some centres unmarked) [Example 13, Pilocarpic Acid 1-Phenylethyl Ester], in series [1] (octanol/phosphate buffer), the “log P” value amounted to 2.08. In series [1] (setting [6]), the logD is 2.08.

For `CC[C@H](C(=O)OCc1ccccc1)[C@H](COC(=O)c1ccccc1)Cc1cncn1C` [Example 14, O-Benzoyl Pilocarpic Acid Benzyl Ester], the half-life in series [3] (setting [14]) amounted to 0.2 h. For the same molecule, the “kOH” value in series [5] was 0.0633 M⁻¹ s⁻¹. In series [1] (setting [12]), the logD was found to be 4.22. The “predicted shelf-life at 20° C.” value in series [4] (aqueous solution pH 3-5, 20° C., temperature-accelerated kinetic stability studies) is on record as more than 20 years. The “predicted shelf-life at 25° C.” value in series [4] (aqueous solution pH 3-5, 25° C., temperature-accelerated kinetic stability studies) is on record as more than 8 years. For the same molecule, the “pH region of maximum stability” value in series [4] (aqueous solutions) is 3-5 pH. Also, in the series on eyes of the rabbits (setting [15]), the “time for which miotic effect is apparent” value is “up to 4.5 hours”.

`CC[C@H](C(=O)OCc1ccc(Cl)cc1)[C@H](COC(=O)c1ccccc1)Cc1cncn1C` [Example 15, O-Benzoyl Pilocarpic Acid 4-Chlorobenzyl Ester]: the half-life in series [3] (setting [14]) worked out at 0.283 h. Moreover, the “kOH” value in series [5] was 0.0567 M⁻¹ s⁻¹. Moreover, the logD in series [1] (setting [12]) came out at 4.75. Besides, in the series with eyes of the rabbits (25 μl of 0.125% (pilocarpine nitrate equivalent), FIG. 6), the “time for which miotic effect is apparent” value was “up to 4.5 hours”.

Regarding `CC[C@H](C(=O)OCCc1ccccc1)[C@H](COC(=O)c1ccccc1)Cc1cncn1C` [Example 16, O-Benzoyl Pilocarpic Acid 2-Phenylethyl Ester], the half-life in series [3] (setting [14]) is 0.25 h. The “kOH” value in series [5] turned out to be 0.0633 M⁻¹ s⁻¹. For the same molecule, in series [1] (setting [12]), the logD worked out at 4.6.

Regarding `CC[C@H](C(=O)OCc1ccccc1)[C@H](COC(=O)c1cccc(Cl)c1)Cc1cncn1C` [Example 17, O-3-Chlorobenzoyl Pilocarpic Acid Benzyl Ester], the half-life in series [3] (setting [14]) worked out at 0.417 h. Besides, the “kOH” value in series [5] was found to be 0.243 M⁻¹ s⁻¹. The logD in series [1] (setting [12]) was found to be 4.93. Besides, the “time for which miotic effect is apparent” value with eyes of the rabbits (setting [15]) was “up to 4.5 hours”.

As for `CCCC(=O)OCC(Cc1cncn1C)C(CC)C(=O)OCc1ccc(C)cc1` (centres unmarked) [Example 18, O-Butyryl Pilocarpic Acid 4-Methylbenzyl Ester], the half-life in series [3] (setting [14]) stood at 0.25 h. Moreover, the “kOH” value in series [5] was 0.0583 M⁻¹ s⁻¹. In series [1] (setting [12]), the logD came to 4.09. In addition, the “time for which miotic effect is apparent” value with eyes of the rabbits (setting [15]) was “up to 4.5 hours”.

For `CC[C@H](C(=O)OCc1ccccc1)[C@H](COC(=O)Cc1ccccc1)Cc1cncn1C` [Example 19, O-Phenylacetyl Pilocarpic Acid Benzyl Ester], the half-life in series [3] (setting [14]) is 0.0667 h. Further, the “kOH” value in series [5] amounted to 0.362 M⁻¹ s⁻¹. In addition, in series [1] (setting [12]), the logD came out at 3.85. The “time for which miotic effect is apparent” value in the series on eyes of the rabbits (setting [15]) is “up to 4.5 hours”.

With `CC[C@H](C(=O)OCc1ccccc1)[C@H](COC(=O)c1cccnc1)Cc1cncn1C` [Example 20, O-Nicotinoyl Pilocarpic Acid Benzyl Ester], the half-life in series [3] (setting [14]) stood at 0.1 h. Further, the “kOH” value in series [5] was determined as 0.74 M⁻¹ s⁻¹. For the same molecule, the logD in series [1] (setting [12]) was determined as 2.9. Besides, in the series on eyes of the rabbits (setting [15]), the “time for which miotic effect is apparent” value is recorded as “up to 4.5 hours”.

As for `CC[C@@H]1C(=O)OC[C@@H]1Cc1cncn1C` [Pilocarpine, reference compound], the “water solubility of pilocarpine” value in series [2] (free base form and various salts) is listed as “extremely water-soluble”. In addition, in series [4] (pilocarpine, pH 6.4 and 20° C.), the “shelf life in aqueous solutions” value is “less than 1 year”.
